Results from patent US20210145771A1, “N-(3-(2-(4-CHLOROPHENOXY)ACETAMIDO)BICYCLO[1.1.1] PENTAN-1-YL)-2-CYCLOBUTANE-1- CARBOXAMIDE DERIVATIVES AND RELATED COMPOUNDS AS ATF4 INHIBITORS FOR TREATING CANCER AND OTHER DISEASES” (GlaxoSmithKline Intellectual Property Development Limited, priority 2017, published 2021).
Counter-ions that a name gives are not always drawn.

What follows are molecules tested on ATF4 pathway (assay: ATF4 Cell Based Assay (ATF4 reporter assay, NanoLuc luciferase)). Conditions: SH-SY5Y-ATF4-NanoLuc cells challenged with Thapsigargin for 14-18 hours; average of two or more experimental runs; read-out: average ATF4 pathway inhibitory activity (IC50).
From the text: The ATF4 reporter assay measures the effect of Thapsigargin induced cellular stress on ATF4 expression. For this reporter assay, a stable cell line was created by transfecting SH-SY5Y cells with a plasmid containing the NanoLuc® luciferase gene fused to the 5′-UTR of ATF4, under the control of the CMV promoter. The ATF4 5′-UTR contains two open reading frames which mediate the cellular stress-dependent translation of the reporter gene. Clones stably expressing the reporter construct were isolated and selected based on the luminescence response to thapsigargin and inhibition of this signal by test compounds. Briefly, SH-SY5Y-ATF4-NanoLuc cells were challenged with Thapsigargin for 14-18 hours to determine the stress effect with or without test compounds.
Cells were propagated in growth media consisting of 90% DMEM F12 (InVitrogen #11320-033), 10% Fetal Bovine Serum (Gibco #10438-026), 5 mM Glutamax (Gibco #35050-061), 5 mM Hepes, (Gibco #15630-080), and 0.5 mg/ml Geneticin (Gibco #10131-027). Cells were prepared for the assay by removing all media from cells, washing the plated cells with phosphate buffered saline, and detached by adding a solution comprised of 10% Tryple express solution (InVitrogen12604-021) and 90% enzyme-free cell dissociation buffer HANKS base (Gibco 13150-016). The trypsin was deactivated by adding assay media comprised of 90% phenol-red free DMEM F12 (InVitrogen, 11039), 10% Fetal Bovine Serum (Gibco #10438-026), (5 mM Glutamax (Gibco #35050-061), 5 mM Hepes, (Gibco #15630-080), and 0.5 mg/ml Geneticin (Gibco #10131-027). Suspended cells were spun down at 300 g for 5 min, the supernatant was removed and the cell pellet was suspended in warm media (30-37° C.) comprised as above but without 10% Fetal Bovine Serum to a concentration of 1e6 cells/ml.
Assay plates were prepared by adding 250 nL of compound stock solution in 100% DMSO to each well, followed by dispensing 20 microliters/well cell suspension to deliver 15-20 k cell/well. Cells were incubated for 1 hour at 37° C. […]
The measurement of luciferase produced by the ATF4 constructs was measured as follows. Aliquots of the Nano-Glo reagent (Nano-Glo® Luciferase Assay Substrate, Promega, N113, Nano-Glo® Luciferase Assay Buffer, Promega, N112 (parts of Nano-Glo® Luciferase Assay System, N1150) were brought to room temperature, the substrate and buffer were mixed according to manufacturer's instructions. The cell plates were equilibrated to room temperature. 25 microliters/well of the mixed Nano-Glo reagent were dispensed into assay wells and pulse spun to settle contents and the plate was sealed with film. The plates were incubated at room temperature for 1 hour before detecting luminescence on an EnVision® plate reader.

Question: Which IC50 does the source give for `Cc1ccc(OCC(=O)NC23CC(NC(=O)COC4(C)CC4)(C2)C3)cc1` [Example 20, 2-(1-methylcyclopropoxy)-N-(3-(2-(p-tolyloxy)acetamido)bicyclo[1.1.1]pentan-1-yl)acetamide] here?
Answer: 6.32 µM

Question: Which IC50 does the source give for `O=C(COc1ccc(Cl)cc1)NC12CC(NC(=O)C3CCCO3)(C1)C2` (stereo not shown) [Example 32, N-(3-(2-(4-chlorophenoxy)acetamido)bicyclo[1.1.1]pentan-1-yl)tetrahydrofuranyl-2-carboxamide] here?
Answer: 4.76 µM

Question: How did the IC50 turn out when `O=C(COc1ccc(Cl)cc1)NC12CC(NC(=O)C3CCC3)(C1)C2` [Example 34, N-(3-(2-(4-chlorophenoxy)acetamido)bicyclo[1.1.1]pentan-1-yl)cyclobutanecarboxamide] was run?
Answer: 3.27 µM

Question: With `O=C(COc1ccc(Cl)cc1)NC12CC(NC(=O)C3CCCN3)(C1)C2` (stereo not shown) [Example 53, N-(3-(2-(4-chlorophenoxy)acetamido)bicyclo[1.1.1]pentan-1-yl)pyrrolidinyl-2-carboxamide hydrochloride] as the molecule, how does the IC50 read?
Answer: 3.36 µM
